According to ChEMBL document CHEMBL5550154, “Novel biaryloxazolidinone derivatives with broad-spectrum antibacterial activity, favorable drug-like profiles and in vivo efficacy against linezolid-resistant Staphylococcusaureus” (Eur J Med Chem, 2024):
In brackets after ≈: the same amount, converted by molar mass.

What was measured:
[1] = Plasma protein binding in mouse incubated for 6 hrs by LC-MS/MS analysis; format: ADME, cell-free; settings: read-out: PPB (converted)
[2] = Stability in dog plasma assessed as parent compound remaining at 37 degreeC measured upto 60 mins by HPLC analysis; format: ADME, cell-free, Canis lupus familiaris; settings: read-out: Stability
[3] = Stability in rat plasma assessed as parent compound remaining at 37 degreeC measured upto 60 mins by HPLC analysis; format: ADME, cell-free; settings: read-out: Stability
[4] = Volume of distribution at steady state in ICR mouse at 1 mg/kg, iv measured upto 24 hrs by LC-MS analysis; format: ADME, organism-based; settings: in vivo, read-out: Vdss
[5] = Plasma protein binding in rat incubated for 6 hrs by LC-MS/MS analysis; format: ADME, cell-free; settings: read-out: PPB (converted)
Staphylococcus aureus [6] = test: Antibacterial activity against methicillin-sensitive Staphylococcus aureus assessed as inhibition of bacterial growth incubated for 16 to 20 hrs by CLSI based broth liquid microdilution method; format: functional; settings: time 16-20 hrs
[7] = Microsomal stability in mouse liver microsomes assessed as elimination half life pretreated with compound upto 60 mins followed by NADPH addition and measured after 60 mins by LC/MS analysis; format: ADME, Microsome; settings: time < 120 min; for half-life: liver microsomes, read-out: beta t1/2
[8] = AUC (0 to t) in ICR mouse at 10 mg/kg, IG measured upto 24 hrs by LC-MS analysis; format: ADME, organism-based; settings: in vivo, po
[9] = Stability in monkey plasma assessed as parent compound remaining at 25 degreeC measured upto 60 mins by HPLC analysis; format: ADME, cell-free, Macaca mulatta; settings: rhesus monkey; for remaining at 1 h: read-out: Stability
Cytochrome P450 2D6 = Cytochrome P450 2D6 (Homo sapiens, UniProt P10635); test: Inhibition of CYP2D6 in human liver microsomes […] preincubated with compound for 5 mins followed by substrate addition and measured after 120 mins in presence of NADPH by LC-MS/MS analysis; format: ADME, Microsome
[10] = Cmax in Sprague-Dawley rat at 10 mg/kg, IG measured upto 24 hrs by LC-MS analysis; format: ADME, organism-based; settings: in vivo, po
[11] = Microsomal stability in dog liver microsomes assessed as elimination half life pretreated with compound upto 60 mins followed by NADPH addition and measured after 60 mins by LC/MS analysis; format: ADME, Canis lupus familiaris, Microsome; settings: time < 120 min; for half-life: liver microsomes, read-out: beta t1/2
[12] = Cytotoxicity against human HepG2 cells incubated for 48 hrs by MTT assay; format: toxicity, cell-based
[13] = Clearance in ICR mouse at 1 mg/kg, iv measured upto 24 hrs by LC-MS analysis; format: ADME, organism-based; settings: in vivo
[14] = Stability in dog plasma assessed as parent compound remaining at 25 degreeC measured upto 60 mins by HPLC analysis; format: ADME, cell-free, Canis lupus familiaris; settings: read-out: Stability
[15] = Plasma protein binding in dog incubated for 6 hrs by LC-MS/MS analysis; format: ADME, cell-free, Canis lupus familiaris; settings: read-out: PPB (converted)
Cytochrome P450 1A2 = biological target: T1, Cytochrome P450 1A2 (Homo sapiens, UniProt P05177); test: Inhibition of CYP1A2 in human liver microsomes with alpha-naphthoflavone as reference inhibitor preincubated with compound for 5 mins followed by substrate addition and measured after 120 mins in presence of NADPH by LC-MS/MS analysis; format: ADME, Microsome
T1 sequence (P05177 whole entry): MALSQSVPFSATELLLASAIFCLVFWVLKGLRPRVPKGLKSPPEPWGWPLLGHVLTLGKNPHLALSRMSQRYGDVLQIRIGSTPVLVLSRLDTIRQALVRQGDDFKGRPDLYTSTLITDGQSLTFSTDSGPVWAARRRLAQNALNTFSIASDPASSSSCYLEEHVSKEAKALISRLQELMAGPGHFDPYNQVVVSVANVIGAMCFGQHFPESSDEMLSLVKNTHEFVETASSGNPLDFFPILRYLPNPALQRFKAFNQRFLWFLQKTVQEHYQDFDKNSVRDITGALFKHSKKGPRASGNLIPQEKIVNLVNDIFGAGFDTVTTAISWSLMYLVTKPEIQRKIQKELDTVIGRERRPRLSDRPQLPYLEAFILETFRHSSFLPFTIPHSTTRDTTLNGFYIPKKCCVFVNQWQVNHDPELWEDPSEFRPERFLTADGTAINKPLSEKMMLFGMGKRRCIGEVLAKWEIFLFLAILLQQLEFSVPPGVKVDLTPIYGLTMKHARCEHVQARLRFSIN

[16] = Stability in monkey plasma assessed as parent compound remaining at 37 degreeC measured upto 60 mins by HPLC analysis; format: ADME, cell-free, Macaca mulatta; settings: rhesus monkey, read-out: Stability
[17] = Microsomal stability in dog liver microsomes assessed as intrinsic clearance pretreated with compound upto 60 mins followed by NADPH addition and measured after 60 mins by LC/MS analysis; format: ADME, Canis lupus familiaris, Microsome; settings: time < 120 min; for microsomal CLint: liver microsomes, read-out: CLH
[18] = Tmax in Sprague-Dawley rat at 10 mg/kg, IG measured upto 24 hrs by LC-MS analysis; format: ADME, organism-based; settings: in vivo, po
[19] = Elimination half life in Sprague-Dawley rat at 1 mg/kg, iv measured upto 24 hrs by LC-MS analysis; format: ADME, organism-based; settings: in vivo, read-out: beta t1/2 (converted)
[20] = AUC (0 to t) in ICR mouse at 1 mg/kg, iv measured upto 24 hrs by LC-MS analysis; format: ADME, organism-based; settings: in vivo
[21] = Tmax in ICR mouse at 10 mg/kg, IG measured upto 24 hrs by LC-MS analysis; format: ADME, organism-based; settings: in vivo, po
[22] = Aqueous solubility of compound at pH 7.4 by LC-MS/MS analysis; format: physicochemical; settings: buffer
[23] = Elimination half life in Sprague-Dawley rat at 10 mg/kg, IG measured upto 24 hrs by LC-MS analysis; format: ADME, organism-based; settings: in vivo, po, read-out: beta t1/2 (converted)
[24] = Microsomal stability in rat liver microsomes assessed as intrinsic clearance pretreated with compound upto 60 mins followed by NADPH addition and measured after 60 mins by LC/MS analysis; format: ADME, Microsome; settings: time < 120 min, read-out: CLH
Cytochrome P450 2C19 = Cytochrome P450 2C19 (Homo sapiens, UniProt P33261); test: Inhibition of CYP2C19 in human liver microsomes […] preincubated with compound for 5 mins followed by substrate addition and measured after 120 mins in presence of NADPH by LC-MS/MS analysis; format: ADME, Microsome
[25] = Microsomal stability in human liver microsomes assessed as intrinsic clearance pretreated with compound upto 60 mins followed by NADPH addition and measured after 60 mins by LC/MS analysis; format: ADME, Microsome; settings: time < 120 min, read-out: CLH
[26] = AUC (0 to t) in Sprague-Dawley rat at 10 mg/kg, IG measured upto 24 hrs by LC-MS analysis; format: ADME, organism-based; settings: in vivo, po
[27] = Microsomal stability in monkey liver microsomes assessed as elimination half life pretreated with compound upto 60 mins followed by NADPH addition and measured after 60 mins by LC/MS analysis; format: ADME, Macaca mulatta, Microsome; settings: rhesus monkey, time < 120 min, read-out: beta t1/2
[28] = Half life in ICR mouse at 10 mg/kg, IG measured upto 24 hrs by LC-MS analysis; format: ADME, organism-based; settings: in vivo, po
Staphylococcus aureus [29] = test: Antibacterial activity against methicillin-resistant Staphylococcus aureus assessed as inhibition of bacterial growth incubated for 16 to 20 hrs by CLSI based broth liquid microdilution method; format: functional; settings: time 16-20 hrs
Staphylococcus aureus [30] = test: Antibacterial activity against linezolid-resistant Staphylococcus aureus assessed as inhibition of bacterial growth incubated for 16 to 20 hrs by CLSI based broth liquid microdilution method; format: functional; settings: time 16-20 hrs
[31] = Aqueous solubility of compound at pH 2 by LC-MS/MS analysis; format: physicochemical; settings: buffer
Staphylococcus aureus [32] = test: Antibacterial activity against Staphylococcus aureus ATCC29213 assessed as inhibition of bacterial growth incubated for 16 to 20 hrs by CLSI based broth liquid microdilution method; format: functional; settings: time 16-20 hrs

Sequence of Cytochrome P450 2C19 (P33261 whole entry): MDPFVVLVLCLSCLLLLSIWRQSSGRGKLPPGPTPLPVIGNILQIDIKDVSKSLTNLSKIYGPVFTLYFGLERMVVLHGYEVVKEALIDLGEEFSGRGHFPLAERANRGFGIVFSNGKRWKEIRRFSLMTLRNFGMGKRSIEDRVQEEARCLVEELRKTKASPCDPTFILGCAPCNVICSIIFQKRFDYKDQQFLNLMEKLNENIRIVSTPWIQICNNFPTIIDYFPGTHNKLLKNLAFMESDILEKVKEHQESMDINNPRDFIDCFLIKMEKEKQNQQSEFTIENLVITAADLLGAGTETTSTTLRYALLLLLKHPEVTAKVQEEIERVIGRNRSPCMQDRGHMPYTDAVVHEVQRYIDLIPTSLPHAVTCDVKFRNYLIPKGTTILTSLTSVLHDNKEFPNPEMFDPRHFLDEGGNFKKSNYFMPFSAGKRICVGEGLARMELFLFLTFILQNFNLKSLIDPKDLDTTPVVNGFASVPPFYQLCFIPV
Sequence of Cytochrome P450 2D6 (P10635 whole entry): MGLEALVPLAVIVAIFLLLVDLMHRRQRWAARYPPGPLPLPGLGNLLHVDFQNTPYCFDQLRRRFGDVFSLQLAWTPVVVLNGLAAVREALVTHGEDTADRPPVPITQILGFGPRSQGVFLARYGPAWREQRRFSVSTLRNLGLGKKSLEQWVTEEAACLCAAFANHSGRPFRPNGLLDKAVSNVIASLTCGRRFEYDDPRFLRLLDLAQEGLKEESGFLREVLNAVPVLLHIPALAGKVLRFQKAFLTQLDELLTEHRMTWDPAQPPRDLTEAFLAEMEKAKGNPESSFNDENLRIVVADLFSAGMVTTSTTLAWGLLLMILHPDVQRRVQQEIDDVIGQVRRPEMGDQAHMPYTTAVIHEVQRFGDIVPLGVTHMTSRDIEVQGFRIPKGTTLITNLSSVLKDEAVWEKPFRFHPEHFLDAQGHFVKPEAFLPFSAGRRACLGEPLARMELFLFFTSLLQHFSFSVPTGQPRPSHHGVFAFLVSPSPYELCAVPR

Structure (SMILES)	fraction unbound at 6 h [1]	remaining at 1 h [2]	remaining at 1 h [3]	Vd [4]	fraction unbound at 6 h [5]	MIC (Staphylococcus aureus [6])	IC50 (Cytochrome P450 2D6)	Cmax [10]	IC50 at 48 h [12]	remaining at 1 h [14]	fraction unbound at 6 h [15]	IC50 (Cytochrome P450 1A2)	remaining at 1 h [16]	Tmax [18]	half-life [19]	half-life [23]	microsomal CLint [24]	IC50 (Cytochrome P450 2C19)	AUC(0-t) at 24 h [26]	half-life [27]	further results
CC(C)N/N=C/c1ccc(-c2ccc(N3C[C@H](CO)OC3=O)cc2F)cn1	0.048	108%	102%	0.42 L/kg	0.018	0.03 µg/mL (≈ 0.0806 µM)	> 30 µM	2480 ng/mL	> 30 µM	112%	0.074	> 30 µM	106%	1.17 h	0.98 h	1.94 h	12.6 µL/min/mg	11 µM	10100 ng·h/mL	1.68 h	beta t1/2 ([7]; microsomes, 2 h): 1.26 h; AUC(0-t) at 24 h [8]: 613 ng·h/mL; remaining at 1 h [9]: 108%; half-life [11]: 3.37 h; clearance [13]: 34.9 mL/min/kg; microsomal CLint [17]: 8.78 µL/min/mg; AUC(0-t) at 24 h [20]: 475 ng·h/mL; Tmax [21]: 0.25 h; solubility [22]: 30.2 µM (≈ 11.2 µg/mL); microsomal CLint [25]: 5.78 µL/min/mg; half-life [28]: 3.3 h; MIC (Staphylococcus aureus [29]): 0.03 µg/mL (≈ 0.0806 µM); MIC (Staphylococcus aureus [30]): 0.03 µg/mL (≈ 0.0806 µM); solubility [31]: 56.4 µM (≈ 21 µg/mL); MIC (Staphylococcus aureus [32]): 0.06 µg/mL (≈ 0.161 µM)
O=C1O[C@@H](CO)CN1c1ccc(-c2ccc(/C=N/N3CCCCC3)nc2)c(F)c1	0.013	100%	104%	1.31 L/kg	0.006	0.03 µg/mL (≈ 0.0753 µM)	> 30 µM	1380 ng/mL	> 30 µM	97.4%	0.017	> 30 µM	105%	1.67 h	1.23 h	2.72 h	14.5 µL/min/mg	0.858 µM	7170 ng·h/mL	1.34 h	half-life [7]: 2.5 h; AUC(0-t) at 24 h [8]: 4740 ng·h/mL; remaining at 1 h [9]: 120%; half-life [11]: 1.78 h; clearance [13]: 13.9 mL/min/kg; microsomal CLint [17]: 13.1 µL/min/mg; AUC(0-t) at 24 h [20]: 1190 ng·h/mL; Tmax [21]: 2 h; solubility [22]: 9.94 µM (≈ 3.96 µg/mL); microsomal CLint [25]: 11.8 µL/min/mg; MIC (Staphylococcus aureus [29]): 0.03 µg/mL (≈ 0.0753 µM); MIC (Staphylococcus aureus [30]): 0.03 µg/mL (≈ 0.0753 µM); solubility [31]: 58.4 µM (≈ 23.3 µg/mL); MIC (Staphylococcus aureus [32]): 0.03 µg/mL (≈ 0.0753 µM)
O=C1O[C@@H](CO)CN1c1ccc(-c2ccc(/C=N/N3CCS(=O)(=O)CC3)nc2)c(F)c1	0.245	107%	106%		0.096	0.125 µg/mL (≈ 0.279 µM)	> 30 µM	597 ng/mL	> 30 µM	113%	0.275	> 30 µM	103%	0.42 h	0.72 h	4.28 h	2.07 µL/min/mg	> 30 µM	2120 ng·h/mL	9.68 h	half-life [7]: 32.5 h; Stability ([9]; 1 h): 144%; beta t1/2 ([11]; microsomes, 2 h): 98.85 h; CLH ([17]; microsomes, 2 h): 0.804 µL/min/mg; solubility [22]: 20 µM (≈ 8.97 µg/mL); microsomal CLint [25]: 1.51 µL/min/mg; MIC (Staphylococcus aureus [29]): 0.25 µg/mL (≈ 0.557 µM); MIC (Staphylococcus aureus [30]): 0.25 µg/mL (≈ 0.557 µM); solubility [31]: 72.2 µM (≈ 32.4 µg/mL); MIC (Staphylococcus aureus [32]): 0.25 µg/mL (≈ 0.557 µM)
CC(=O)NC[C@H]1CN(c2ccc(N3CCOCC3)c(F)c2)C(=O)O1 [LINEZOLID]	0.721	110%	107%	0.56 L/kg	0.639		> 30 µM	4830 ng/mL	> 30 µM	99.1%	0.829	> 30 µM	105%	0.5 h	0.41 h	1.08 h	2.22 µL/min/mg	> 30 µM	13000 ng·h/mL	51.8 h	half-life [7]: 10.6 h; AUC(0-t) at 24 h [8]: 24000 ng·h/mL; remaining at 1 h [9]: 99.4%; half-life [11]: 34.6 h; clearance [13]: 20.6 mL/min/kg; microsomal CLint [17]: 0.667 µL/min/mg; AUC(0-t) at 24 h [20]: 794 ng·h/mL; Tmax [21]: 0.25 h; half-life [28]: 0.8 h
